{
  "source": "paper PMC5000080",
  "about": "“Mechanism of Histone H3K4me3 Recognition by the Plant Homeodomain of Inhibitor of Growth 3” (The Journal of Biological Chemistry, 2016)",
  "key": {"[1]": {"biological_target": "T1, wild-type ING3 PHD finger (Homo sapiens, UniProt Q9NXR8)", "T1 construct": "The ING3 PHD finger region (residues 360–409) was amplified using PCR; GST (N, cleaved yes); made in house; host or cells: Escherichia coli Rosetta 2(DE3)pLysS", "T1 sequence (Q9NXR8 360-409)": "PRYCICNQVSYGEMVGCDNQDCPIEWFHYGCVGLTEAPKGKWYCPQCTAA", "assay": "ITC of wild-type ING3 PHD finger with histone peptides", "format": "binding", "conditions": "for Kd / ITC KD: wild-type ING3 PHD, 5 °C, 20 mM NaH2PO4 pH 7.0, 150 mM NaCl, triplicate, non-binding in duplicate", "protocol": "(§1) ITC measurements were recorded at 5 °C using a MicroCal iTC200 (GE Healthcare) as described previously ([55]). The wild-type and mutant ING3PHD proteins and histone peptide samples were prepared in a 20 mM NaH2PO4, pH 7.0, and 150 mM NaCl ITC buffer by dialysis for 24–48 h. Titration experiments were set up for optimal heat of binding reactions by using 100–200 μM ING3PHD in the sample cell, and between 1 and 5 mM histone peptide in the injection syringe. Control experiments were performed under identical conditions to determine the heat of dilution of the titrant peptides into the experimental buffer. This was subtracted from the experimental data as part of data analysis. Data were analyzed using the software ORIGIN 7.0 (OriginLab Corp.)."}, "[2]": {"biological_target": "T2, ING3 PHD W47A (Homo sapiens, UniProt Q9NXR8, W401A)", "T2 construct": "The ING3 PHD finger region (residues 360–409) was amplified using PCR; GST (N, cleaved yes); made in house; host or cells: Escherichia coli Rosetta 2(DE3)pLysS", "T2 sequence (Q9NXR8 360-409 W401A)": "as the sequence (Q9NXR8 360-409) above, with W42A counted along it", "assay": "ITC of ING3 PHD mutant with H3K4me3 peptide", "format": "binding", "conditions": "5 °C, pH 7.0, triplicate", "text": "(§2) The ING3 PHD finger region (residues 360–409) was amplified using PCR and cloned into the pDEST15 vector encoding an N-terminal glutathione transferase (GST) tag using the Gateway cloning technology (Invitrogen) as described previously ([55]). ING3PHD proteins with single mutations at W31A, W47A, S15A, P43A, Y8A, and D26H were generated using the QuikChange® mutagenesis procedure (Stratagene) as described previously ([56]). The DNA sequence for wild-type and mutant proteins was verified at the University of Vermont DNA facility, and the plasmids were transformed into in Escherichia coli Rosetta^TM 2(DE3)pLysS competent cells (Novagen) for protein expression.\nas §1, with “Corp.). All experiments where binding occurred were performed in triplicate, whereas non-binding experiments were performed in duplicate.” for “Corp.).”"}, "[3]": {"biological_target": "T3, ING3 PHD S15A (Homo sapiens, UniProt Q9NXR8, S369A)", "T3 construct": "The ING3 PHD finger region (residues 360–409) was amplified using PCR; GST (N, cleaved yes); made in house; host or cells: Escherichia coli Rosetta 2(DE3)pLysS", "T3 sequence (Q9NXR8 360-409 S369A)": "as the sequence (Q9NXR8 360-409) above, with S10A counted along it", "assay": "ITC of ING3 PHD mutant with H3K4me3 peptide", "format": "binding", "text": "as §2\nas §1, with “Corp.). All experiments where binding occurred were performed in triplicate, whereas non-binding experiments were performed in duplicate.” for “Corp.).”"}, "[4]": {"biological_target": "T4, ING3 PHD D26H (Homo sapiens, UniProt Q9NXR8, D380H)", "T4 construct": "The ING3 PHD finger region (residues 360–409) was amplified using PCR; GST (N, cleaved yes); made in house; host or cells: Escherichia coli Rosetta 2(DE3)pLysS", "T4 sequence (Q9NXR8 360-409 D380H)": "as the sequence (Q9NXR8 360-409) above, with D21H counted along it", "assay": "ITC of ING3 PHD mutant with H3K4me3 peptide", "format": "binding", "conditions": "5 °C, pH 7.0, triplicate", "text": "as §2\nas §1, with “Corp.). All experiments where binding occurred were performed in triplicate, whereas non-binding experiments were performed in duplicate.” for “Corp.).”"}, "[5]": {"biological_target": "T5, ING3 PHD P43A (Homo sapiens, UniProt Q9NXR8, P397A)", "T5 construct": "The ING3 PHD finger region (residues 360–409) was amplified using PCR; GST (N, cleaved yes); made in house; host or cells: Escherichia coli Rosetta 2(DE3)pLysS", "T5 sequence (Q9NXR8 360-409 P397A)": "as the sequence (Q9NXR8 360-409) above, with P38A counted along it", "assay": "ITC of ING3 PHD mutant with H3K4me3 peptide", "format": "binding", "text": "as §2\nas §1, with “Corp.). All experiments where binding occurred were performed in triplicate, whereas non-binding experiments were performed in duplicate.” for “Corp.).”"}, "[6]": {"biological_target": "T6, ING3 PHD Y8A (Homo sapiens, UniProt Q9NXR8, Y362A)", "T6 construct": "The ING3 PHD finger region (residues 360–409) was amplified using PCR; GST (N, cleaved yes); made in house; host or cells: Escherichia coli Rosetta 2(DE3)pLysS", "T6 sequence (Q9NXR8 360-409 Y362A)": "as the sequence (Q9NXR8 360-409) above, with Y3A counted along it", "assay": "ITC of ING3 PHD mutant with H3K4me3 peptide", "format": "binding", "conditions": "5 °C, pH 7.0, triplicate", "text": "as §2\nas §1, with “Corp.). All experiments where binding occurred were performed in triplicate, whereas non-binding experiments were performed in duplicate.” for “Corp.).”"}, "[7]": {"biological_target": "T7, ING3 PHD W31A (Homo sapiens, UniProt Q9NXR8, W385A)", "T7 construct": "The ING3 PHD finger region (residues 360–409) was amplified using PCR; GST (N, cleaved yes); made in house; host or cells: Escherichia coli Rosetta 2(DE3)pLysS", "T7 sequence (Q9NXR8 360-409 W385A)": "as the sequence (Q9NXR8 360-409) above, with W26A counted along it", "assay": "ITC of ING3 PHD mutant with H3K4me3 peptide", "conditions": "5 °C, pH 7.0, non-binding in duplicate", "text": "as §2\nas §1, with “This was subtracted from the experimental data as part of data analysis.” left out, “Corp.). […]” for “Corp.).”"}, "[8]": {"biological_target": "T8, 15N-labeled ING3 PHD finger (Homo sapiens, UniProt Q9NXR8)", "T8 construct": "The ING3 PHD finger region (residues 360–409) was amplified using PCR; GST (N, cleaved yes); made in house; host or cells: Escherichia coli Rosetta 2(DE3)pLysS", "T8 sequence (Q9NXR8 360-409)": "as the sequence (Q9NXR8 360-409) above", "assay": "1H-15N HSQC NMR chemical shift perturbation", "format": "binding", "conditions": "0.5 mM ING3 PHD, 20 mM Tris-HCl pH 6.8, 150 mM NaCl, 10 mM DTT, 25 °C; protein:peptide up to 1:2.61", "protocol": "Chemical shift perturbation experiments were conducted using 0.5 mM uniformly ^15N-labeled ING3 PHD finger in buffer containing 20 mM Tris-HCl, pH 6.8, 150 mM NaCl, 10 mM DTT, and 10% D2O. Titration mixtures of the ING3PHD protein and each of the modified histone peptides were prepared at concentration ratios of 1:0, 1:0.13, 1:0.26, 1:0.52, 1:1.3, and 1:2.61 in a volume of 35 μl. These mixtures were then transferred into 1.7-mm NMR tubes (Bruker).\nTwo-dimensional ^15N HSQC (heteronuclear single quantum coherence) experiments for all samples were run at 25 °C on a 600 MHz Bruker AVANCE III spectrometer equipped with a z-gradient 1.7-mm TCI probe at the National Magnetic Resonance Facility at Madison (NMRFAM) using the NMRBot software ([57]). The NMR data were collected with 1024 × 128 complex data points along the ^1H and ^15N dimensions, with acquisition times of 104 and 81 ms, respectively, using eight scans per free induction decay. Normalized chemical shift changes were calculated using Equation 2, [drawing 2] where ΔδH and ΔδN are the proton and nitrogen change in chemical shift in ppm, respectively."}, "[9]": {"biological_target": "T9, ING3 PHD finger (Homo sapiens, UniProt Q9NXR8)", "T9 construct": "The ING3 PHD finger region (residues 360–409) was amplified using PCR; GST (N, cleaved yes); made in house; host or cells: Escherichia coli Rosetta 2(DE3)pLysS", "T9 sequence (Q9NXR8 360-409)": "as above", "assay": "Tryptophan fluorescence titration of ING3 PHD finger with histone peptides", "format": "binding", "conditions": "25 °C, 100 mM NaPO4 pH 7.5, 150 mM NaCl, 1 mM DTT, 10 μM ING3 PHD; average of three titrations; read-out: Trp fluorescence KD", "protocol": "Tryptophan fluorescence spectra of samples in tryptophan fluorescence buffer (100 mM NaPO4, pH 7.5, 150 mM NaCl, and 1 mM DTT) were collected at 25 °C using a Cary Eclipse fluorescence spectrometer (Varian). The samples contained 10 μM ING3 PHD finger protein and progressively increasing concentrations of histone H3 and H4 peptides. The 12- and 14-mer unlabeled histone tail peptides with an amidated C terminus and specific methylation modifications (H3K4me3, H3K4me2, H3K4me1, H3 unmodified, and H4 unmodified) were synthesized by the Peptide Core Facility at the University of Colorado at Denver. After excitation at 295 nm, emission spectra were recorded between 305 and 405 nm with 0.5-nm increments and at a 1-s integration time, averaging over three scans. Each titration experiment was repeated three times, and the average KD values were calculated using quadratic Equation 1, [drawing 1] where Fi is the fluorescence change; Fs is the fluorescence change at saturation of XT (the total protein concentration); and YT is the peptide concentration."}},
  "note": "Values joined by “and” are separate entries in the source; they are usually repeats but may differ in a detail not shown here. Equal entries are not always repeated. “Also recorded” adds a separate entry of the source.",
  "data": [
    {"compound": "C[C@H](N)C(=O)N[C@@H](CCCNC(=N)N)C(=O)N[C@H](C(=O)N[C@@H](CCCC[N+](C)(C)C)C(=O)N[C@@H](CCC(N)=O)C(=O)N[C@H](C(=O)N[C@@H](C)C(=O)N[C@@H](CCCNC(=N)N)C(=O)N[C@@H](CCCCN)C(=O)N[C@@H](CO)C(=O)N[C@H](C(=O)NCC(N)=O)[C@@H](C)O)[C@@H](C)O)[C@@H](C)O", "note": "[H3K4me3]", "values": [
      {"measurement": "association stronger than with the unmodified histone H3", "setting": "[1]; abstract, method not specified (Trp fluorescence and ITC)", "value": "about 200 fold"},
      {"measurement": "Kd", "setting": "[1]", "value": "0.93 ± 0.04", "unit": "µM"},
      {"measurement": "Kd", "setting": "[2]", "value": "48.31 ± 0.23", "unit": "µM"},
      {"measurement": "Kd", "setting": "[3]; 5 °C, pH 7.0, triplicate", "value": "1.5 ± 0.01", "unit": "µM"},
      {"measurement": "drop in binding affinity versus WT", "setting": "[3]; ITC", "value": "2–3 fold and 2 fold"},
      {"measurement": "Kd", "setting": "[4]", "value": "1.93 ± 0.26", "unit": "µM"},
      {"measurement": "Kd", "setting": "[5]; 5 °C, pH 7.0, triplicate", "value": "2.45 ± 0.27", "unit": "µM"},
      {"measurement": "drop in binding affinity versus WT", "setting": "[5]; ITC", "value": "2–3 fold"},
      {"measurement": "Kd", "setting": "[6]", "value": "46 ± 2.99", "unit": "µM"},
      {"measurement": "ITC KD", "setting": "[7]", "value": "no recognition of this ligand; also recorded: No binding"},
      {"measurement": "chemical shift perturbations in 1H-15N HSQC upon addition of peptide", "setting": "[8]", "value": "Chemical shift perturbations were induced"},
      {"measurement": "Kd", "setting": "[9]", "value": "0.63 ± 0.11", "unit": "µM"}
    ]},
    {"compound": "C[C@H](N)C(=O)N[C@@H](CCCNC(=N)N)C(=O)N[C@H](C(=O)N[C@@H](CCCCN(C)C)C(=O)N[C@@H](CCC(N)=O)C(=O)N[C@H](C(=O)N[C@@H](C)C(=O)N[C@@H](CCCNC(=N)N)C(=O)N[C@@H](CCCCN)C(=O)N[C@@H](CO)C(=O)N[C@H](C(=O)NCC(N)=O)[C@@H](C)O)[C@@H](C)O)[C@@H](C)O", "note": "[H3K4me2]", "values": [
      {"measurement": "Kd", "setting": "[1]", "value": "2.99 ± 0.33", "unit": "µM"},
      {"measurement": "chemical shift perturbations in 1H-15N HSQC upon addition of peptide", "setting": "[8]", "value": "Chemical shift perturbations were induced"},
      {"measurement": "Kd", "setting": "[9]", "value": "4.05 ± 0.53", "unit": "µM"}
    ]},
    {"compound": "C[C@H](N)C(=O)N[C@@H](CCCNC(=N)N)C(=O)N[C@H](C(=O)N[C@@H](CCCCN)C(=O)N[C@@H](CCC(N)=O)C(=O)N[C@H](C(=O)N[C@@H](C)C(=O)N[C@@H](CCCNC(=N)N)C(=O)N[C@@H](CCCCN)C(=O)N[C@@H](CO)C(=O)N[C@H](C(=O)NCC(N)=O)[C@@H](C)O)[C@@H](C)O)[C@@H](C)O", "note": "[H3 unmodified]", "values": [
      {"measurement": "Kd", "setting": "[1]", "value": "181 ± 19.2", "unit": "µM"},
      {"measurement": "chemical shift perturbations in 1H-15N HSQC upon addition of peptide", "setting": "[8]", "value": "Chemical shift perturbations were induced"},
      {"measurement": "Kd", "setting": "[9]", "value": "132 ± 13.5", "unit": "µM"}
    ]},
    {"compound": "GKGGKGLGKGGAKR [H4 unmodified, unmodified histone H4 tail peptide residues 4–17, amidated C terminus]", "values": [
      {"measurement": "ITC KD", "setting": "[1]", "value": "No binding was observed"},
      {"measurement": "ITC KD", "setting": "[1]; listed as H4 unmodified(4–17)", "value": "No binding"},
      {"measurement": "chemical shift perturbations in 1H-15N HSQC upon addition of peptide", "setting": "[8]", "value": "No significant resonance shifts"}
    ]},
    {"compound": "CNCCCC[C@H](NC(=O)[C@@H](NC(=O)[C@H](CCCNC(=N)N)NC(=O)[C@H](C)N)[C@@H](C)O)C(=O)N[C@@H](CCC(N)=O)C(=O)N[C@H](C(=O)N[C@@H](C)C(=O)N[C@@H](CCCNC(=N)N)C(=O)N[C@@H](CCCCN)C(=O)N[C@@H](CO)C(=O)N[C@H](C(=O)NCC(N)=O)[C@@H](C)O)[C@@H](C)O", "note": "[H3K4me1]", "values": [
      {"measurement": "Kd", "setting": "[1]", "value": "23.2 ± 0.8", "unit": "µM"},
      {"measurement": "chemical shift perturbations in 1H-15N HSQC upon addition of peptide", "setting": "[8]", "value": "Chemical shift perturbations were induced"},
      {"measurement": "Kd", "setting": "[9]", "value": "21.4 ± 3.51", "unit": "µM"}
    ]}
  ]
}
